Data taken from the supplement of paper PMC10307832.

Key:
Experiment in all cases: relative viability (nuclei count vs DMSO), 5 days (fraction); higher = more cells survive
Crizotinib + Vorinostat = compound: C[C@@H](Oc1cc(-c2cnn(C3CCNCC3)c2)cnc1N)c1c(Cl)ccc(F)c1Cl [Crizotinib] + O=C(CCCCCCC(=O)Nc1ccccc1)NO [Vorinostat] (partner 1 µM)
Outline: (§1)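 Five library-drug doses in √10 steps were combined with a fixed anchor-drug dose, or a single drug was given alone, by pin tool to lung cancer cell lines in 1536-well plates the day after seeding. Nuclei were stained and counted after 5 days. Relative viability is the nuclei count in treated wells over that in vehicle wells, taken as the median of duplicate plates.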

Carfilzomib + Pictilisib = compound: CC(C)C[C@H](NC(=O)[C@H](CCc1ccccc1)NC(=O)CN1CCOCC1)C(=O)N[C@@H](Cc1ccccc1)C(=O)N[C@@H](CC(C)C)C(=O)[C@@]1(C)CO1 [Carfilzomib] + CS(=O)(=O)N1CCN(Cc2cc3nc(-c4cccc5[nH]ncc45)nc(N4CCOCC4)c3s2)CC1 [Pictilisib] (partner 1 µM)
Outline: as §1

Crizotinib + Foretinib = compound: C[C@@H](Oc1cc(-c2cnn(C3CCNCC3)c2)cnc1N)c1c(Cl)ccc(F)c1Cl [Crizotinib] + COc1cc2c(Oc3ccc(NC(=O)C4(C(=O)Nc5ccc(F)cc5)CC4)cc3F)ccnc2cc1OCCCN1CCOCC1 [Foretinib] (partner 0.25 µM)
Outline: as §1

Olaparib + Luminespib = compound: O=C(c1cc(Cc2n[nH]c(=O)c3ccccc23)ccc1F)N1CCN(C(=O)C2CC2)CC1 [Olaparib] + CCNC(=O)c1noc(-c2cc(C(C)C)c(O)cc2O)c1-c1ccc(CN2CCOCC2)cc1 [Luminespib] (partner 0.01 µM)
Outline: as §1

Carfilzomib + Vorinostat = compound: CC(C)C[C@H](NC(=O)[C@H](CCc1ccccc1)NC(=O)CN1CCOCC1)C(=O)N[C@@H](Cc1ccccc1)C(=O)N[C@@H](CC(C)C)C(=O)[C@@]1(C)CO1 [Carfilzomib] + O=C(CCCCCCC(=O)Nc1ccccc1)NO [Vorinostat] (partner 1 µM)
Outline: as §1

**Q.** What does the source list for NCI-H1793?
**A.** relative viability (Crizotinib + Vorinostat; first compound 0.03162 µM): 0.765; relative viability (Crizotinib + Vorinostat; first compound 0.1 µM): 0.748; relative viability (Crizotinib + Vorinostat; first compound 1 µM): 0.896; relative viability (Carfilzomib + Pictilisib; first compound 0.003162 µM): 0.328; relative viability (Carfilzomib + Pictilisib; first compound 0.01 µM): 0.293; relative viability (Carfilzomib + Pictilisib; first compound 0.03162 µM): 0.335; relative viability (Carfilzomib + Pictilisib; first compound 0.1 µM): 0.248; relative viability (Crizotinib + Foretinib; first compound 0.03162 µM): 0.879; relative viability (Crizotinib + Foretinib; first compound 0.1 µM): 0.604; relative viability (Crizotinib + Foretinib; first compound 1 µM): 0.705; relative viability (Olaparib + Luminespib; first compound 0.08 µM): 0.144; relative viability (Olaparib + Luminespib; first compound 0.253 µM): 0.225; relative viability (Olaparib + Luminespib; first compound 2.53 µM): 0.138; relative viability (Olaparib + Luminespib; first compound 8 µM): 0.149; relative viability (Carfilzomib + Vorinostat; first compound 0.001 µM): 0.605; relative viability (Carfilzomib + Vorinostat; first compound 0.003162 µM): 1; relative viability (Carfilzomib + Vorinostat; first compound 0.01 µM): 0.7; relative viability (Carfilzomib + Vorinostat; first compound 0.03162 µM): 0.396; relative viability (Carfilzomib + Vorinostat; first compound 0.1 µM): 0.107
